Laboratory results reported in US10111885B2, “Compositions and therapeutic methods for the treatment of complement-associated diseases” (Resverlogix Corp., priority 2015, dated 2018).

How the values were obtained:
[1] = tested on: MBL2 mRNA; assay: Complement mRNA expression in primary human hepatocytes; type: cell-based; conditions: 0.3 uM, maximum at 24 h, single donor
Procedure: (§1) Huh-7 and HepG2 cells are liver-derived cell lines and are models for what can occur in the liver. Huh-7 cells (JCRB Cell Bank) were introduced to 96-well plates (^˜2.5×10^5 per well) in 100 μL DMEM containing 10% (v/v) FBS, 100 U/mL penicillin, 100 ug/mL streptomycin and 5 ug/mL plasmocin (all reagents from Gibco, except for the former, which was obtained from Invivogen). After 24 h, Huh-7 cells were treated with compounds in the same media formulation used for plating, and supplemented with 0.1% DMSO for the amount of time indicated in tables 2, 3, and 4. For select experiments, 24 h post-plating, cells were treated with cytokines and the compound of interest simultaneously, for a total treatment time of 48 h. Alternatively, 24 h after plating, cells were pre-treated with cytokines for 24 h before adding the compound of interest for 48 h. HepG2 cells (ATCC) were cultured in 96-well plates (^˜2.5×10^5 per well) in MEM containing 10% FBS, 1× non-essential amino acids, 1 mM sodium pyruvate, 2 mM L-glutamine, 100 U/mL penicillin, 100 ug/mL streptomycin and 5 ug/mL plasmocin. Serum amount was reduced to 0.5% for treatments with compound or cytokines. Timing of treatment of HepG2 cells with compounds and cytokines was as described for Huh-7 cells. Primary human hepatocytes (CellzDirect/Life Technologies) were plated in collagen coated 96-well plates at 70 000 cells/well, then overlaid with Matrigel™ as recommended by the supplier. Cells were treated with compounds of interest and/or cytokines for the indicated time points in the recommended media supplemented with 0.1% DMSO and 10% FBS (v/v). Cells were harvested by mRNA Catcher PLUS Kit (Life Technologies) followed by real-time PCR using the RNA UltraSense One-Step qRT-PCR System. The level of the mRNA of interest was measured by TaqMan real-time PCR relative to the endogenous control cyclophilin A in the same sample.

[2] = tested on: complement C1S mRNA; assay: as above; type: cell-based; conditions: 0.3 uM, maximum at 72 h, single donor
Procedure: as §1

[3] = tested on: complement C2 mRNA; assay: as above; type: cell-based; conditions: 0.3 uM, maximum at 72 h, single donor
Procedure: as §1

[4] = tested on: complement C5 mRNA; assay: as above; type: cell-based; conditions: 0.3 uM, maximum at 24 h, single donor
Procedure: as §1

[5] = tested on: complement C4 mRNA; assay: as above; type: cell-based; conditions: 0.3 uM, maximum at 24 h, single donor
Procedure: as §1

[6] = tested on: complement C3 mRNA; assay: as above; type: cell-based; conditions: 0.3 uM, maximum at 24 h, single donor
Procedure: as §1

[7] = tested on: complement C9 mRNA; assay: as above; type: cell-based; conditions: 0.3 uM, maximum at 48 h, single donor
Procedure: as §1

[8] = tested on: Complement C3 (C3); assay: Multi-analyte profiling of plasma, ASSURE trial; type: in vivo, human; conditions: week 26 vs. baseline, N 20
Procedure: (§2) In this example, plasma samples from human subjects treated with placebo or RVX000222 was analyzed by Multi-Analyte Profiling (MAP) technology. The method can be used to determine the effect of compounds, including those in the present invention, on the levels of various analytes in plasma (Table 8).

[9] = tested on: Complement Factor H - Related Protein 1 (CFHR1); assay: Multi-analyte profiling of plasma, ASSURE trial; type: in vivo, human; conditions: week 26 vs. baseline, N 17
Procedure: as §2

[10] = tested on: Complement Factor H (CFH); assay: Multi-analyte profiling of plasma, ASSURE trial; type: in vivo, human; conditions: week 26 vs. baseline, N 20
Procedure: as §2

[11] = tested on: classical complement system hemolytic activity (sensitized sheep erythrocytes); assay: Total hemolytic complement (CH50) assay on clinical serum samples; type: in vivo, human; conditions: ASSURE trial, 26 weeks vs baseline
Procedure: The method can be used to determine the effect of compounds, including those in the present invention, on the activity of the classical and alternative complement system in clinical samples. […] Using the CH50 screening assay to detect the hemolysis of sheep erythrocytes sensitized by specific antibodies, the hemolytic activity of the complement system in serum samples from treated and untreated subjects was measured. Likewise, using specific conditions to activate only the alternative pathway (AH50), activity of the complement response was measured. The degree of complement activation was measured at baseline and terminally to determine if there were any changes in the function of the complement system following drug treatment (FIG. 7). Reduced function of the complement system constitutes a positive result.

[12] = tested on: CD55 mRNA; assay: Microarray analysis of ex-vivo treated human whole blood; type: cell-based; conditions: 20 uM, 24 h
Procedure: (§3) In this example, RNA from human whole blood treated ex vivo was analyzed by microarray. The method can be used to determine the effect of compounds, including those in the present invention, on RNA levels (Table 6).
(§4) After obtaining informed consent, whole blood was collected from three healthy volunteers into BD Vacutainer Sodium Heparin tubes and samples were inverted 10 times. Blood samples (1 mL) were combined with 1 mL of RPMI containing 2 mM glutamine, 100 U/mL penicillin, 100 ug/mL streptomycin, 20% FBS and the compound of interest or vehicle (0.1% DMSO), followed by a 24 h incubation at 37° C. Treated samples were transferred to a PAXgene RNA tube (PreAnalytix/Qiagen), inverted 5 times and frozen. RNA was isolated with the PAXgene RNA kit according to manufacturer's instructions. Microarray analysis was performed by Asuragen (Austin, Tex.) using the Affymetrix Human […]. Shown in Table 6 is the mean of 3 independent samples (p<0.01). Downregulation of expression of components of the complement cascade will result in reduced activity of the pathway and thus will constitute a positive result. Upregulation of negative regulators or downregulation of positive regulators of the pathway will also result in reduced activity of the pathway and thus will constitute a positive result.

[13] = tested on: CD59 mRNA; assay: as above; type: cell-based; conditions: 20 uM, 24 h
Procedure: as §3, §4

[14] = tested on: Complement component 3 (C3) mRNA; assay: as above; type: cell-based; conditions: 20 uM, 24 h
Procedure: as §3, §4

Row | SMILES | MBL2 percent maximal reduction in gene expression [1] | C1S percent maximal reduction in gene expression [2] | C2 percent maximal reduction in gene expression [3] | C5 percent maximal reduction in gene expression [4] | C4 percent maximal reduction in gene expression [5] | C3 percent maximal reduction in gene expression [6] | C9 percent maximal reduction in gene expression [7] | Complement C3 (C3) Change from baseline [8] | Complement C3 (C3) Percent Change from baseline [8] | Complement Factor H - Related Protein 1 (CFHR1) Change from baseline [9] | Complement Factor H - Related Protein 1 (CFHR1) Percent Change from baseline [9] | Complement Factor H (CFH) Change from baseline [10] | Complement Factor H (CFH) Percent Change from baseline [10] | complement activity in clinical samples, CHSO assay (FIG. 7B) [11] | CD55 % change in expression [12] | CD59 % change in expression [13] | Complement component 3 (C3) % change in expression [14]
1 | Cc1sc2c(c1C)C(c1ccc(Cl)cc1)=N[C@@H](CC(=O)OC(C)(C)C)c1nnc(C)n1-2 [JQ1, (S)-tert-butyl 2-(4-(4-chlorophenyl)-2,3,9-trimethyl-6H-thieno[3,2-f][1,2,4]triazolo[4,3-a][1,4]diazepin-6-yl)acetate, reference compound] | 93% (24 h) | 22% (72 h) | 29% (72 h) | 67% (24 h) | 31% (24 h) | 54% (24 h) | 72% (48 h) |  |  |  |  |  |  |  |  |  | 
2 | COc1cc(OC)c2c(=O)[nH]c(-c3cc(C)c(OCCO)c(C)c3)nc2c1 [RVX000222, 2-(4-(2-hydroxyethoxy)-3,5-dimethylphenyl)-5,7-dimethoxyquinazolin-4(3H)-one] |  |  |  |  |  |  |  | -0.1 mg/mL | −9.28% | -291.76 µg/mL | −10.75% | -75.35 µg/mL | −11.45% | reduces complement activity | 58% | 88% | −59%
